The values below come from US7056532B1, “Compositions for delivery of biological agents and methods for the preparation thereof” (Univ. Nebraska Bd. of Regents, priority 1997, dated 2006).

A short description of this data set: Binding isotherms of surfactants to block copolymer (ion-selective electrode). The class given is physicochemical. The settings on record: FIG. 1, dodecyl- versus cetyl- substituent. From the text:
While not wishing to be bound by any particular theory, it is believed that the above-described surfactants and block copolymers of opposite charge form stable complexes due to cooperative binding. (See, e.g., Goddard, In Interactions of Surfactants with Polymers and Proteins. Goddard and Ananthapadmanabhan, Eds., pp. 171 et seq., CRC Press, Boca Raton, Ann Arbor, London, Tokyo, 1992). Cooperative binding occurs in the sense that binding of surfactant molecules to the block copolymer is enhanced by the presence of other molecules of the same or a different surfactant already bound to the same copolymer. According to the cooperative binding mechanism which is believed to underlie this invention, surfactant binds electrostatically to the oppositely charged P-type segments of the block copolymer to form supramolecular complexes. These complexes are cooperatively stabilized by the interactions of the hydrophobic parts of surfactant molecules bound to the same P-type segment with each other. Indeed, it appears that without these hydrophobic interactions, formation of the desired complex would not occur. FIG. 1 presents the binding isotherms for interaction of cetylpyridinium bromide and dodecylpyridinium bromide with the polyethylene oxide-block-poly(sodium methacrylate) block copolymer. […] This binding mechanism is, in particular, characteristic for surface active biological agents. […]

Turning to `CCCCCCCCCCCC[n+]1ccccc1.[Br-]` [dodecylpyridinium bromide], the “stability of the complex with polyethylene oxide-block-poly(sodium methacrylate)” value was “decreases the stability of the complex more than ten-fold”.
